These results are taken from ChEMBL document CHEMBL1201862, “PubChem BioAssay data set” (2004).

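Dose response: 5 concentrations. Exposure: 48 h. Format: 96-well plates. Endpoint: linear interpolation; highest concentration if not reached. GI50 is the concentration that inhibits growth by half.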 Activity calls are given as the source filed them. Cut-off read from the data, not from the text of the source: active = GI50 up to about 1.1 µM and inactive = higher. Bounds are passed on as bounds.

Some test systems named below: SF-295; HCT-15; OVCAR-5; NCI-H522; CAKI-1; K562; OVCAR-4; 786-0; HT-29; IGROV-1; CCRF-CEM; U-251; HCT-116; MDA-MB-435; HOP-62; NCI-H460; EKVX; T47D; SNB-75; SR.
What all share (test): NCI-60 cell line screen, 48 h

For the molecule `CN1C(=O)C2(c3ccccc31)C1CC3C(CO1)C1C2C3(CO)CN1C#N` (stereo not given), the GI50 with SF-295 was > 100 µM (inactive); with HCT-15, greater than 100 µM; with OVCAR-5, > 100 µM (inactive); in the test with NCI-H522 it was > 100 µM (inactive); in the test with CAKI-1, > 100 µM (inactive); in the test with K562 it was > 100 µM (inactive). Moreover, the GI50 in the test with OVCAR-4, with 786-0, with HT-29, in the test with IGROV-1, in the test with CCRF-CEM and in the test on U-251 was > 100 µM (inactive) throughout. Besides, the GI50 in the test with HCT-116, in the test with MDA-MB-435, in the test on HOP-62, with NCI-H460, with EKVX and in the test on T47D was > 100 µM (inactive) in each case. In addition, the GI50 with SNB-75 and in the test with SR was > 100 µM (inactive) each time.

On to `c1c[nH]c(CN2CCOCC2)n1`, for which the GI50 with SF-295 is > 100 µM (inactive); in the test with HCT-15 it was greater than 100 µM; with OVCAR-5, > 100 µM (inactive); in the test on NCI-H522, > 100 µM (inactive); in the test with CAKI-1, > 100 µM (inactive); in the test with K562 it was > 100 µM (inactive). Moreover, the GI50 in the test with OVCAR-4, with 786-0, with HT-29, in the test with IGROV-1, in the test on CCRF-CEM and in the test with U-251 was > 100 µM (inactive) in each case. The GI50 in the test on HCT-116, in the test on MDA-MB-435, in the test with HOP-62, in the test on NCI-H460, in the test on EKVX and in the test with T47D was > 100 µM (inactive) each time. The GI50 in the test on SNB-75 and with SR was > 100 µM (inactive) in each case.

`Cc1ccc2c(c1)nc1n2C(c2c(F)cccc2F)SC1` (stereo not given): the GI50 was 35.1 µM (inactive) in the test on SF-295; 27.9 µM in the test on HCT-15; 57.4 µM (inactive) in the test with OVCAR-5; 31.5 µM (inactive) in the test on NCI-H522; 27.9 µM (inactive) with CAKI-1; 22.3 µM (inactive) in the test with K562. Also, the GI50 in the test on OVCAR-4 was > 100 µM (inactive); in the test on 786-0, 32 µM (inactive); with HT-29, 28.8 µM (inactive); with IGROV-1, 50.6 µM (inactive); in the test on CCRF-CEM it was 21 µM (inactive); in the test on U-251 it was 39.8 µM (inactive). The GI50 in the test with HCT-116 is 28.4 µM (inactive); in the test on MDA-MB-435 it was 29.6 µM (inactive); in the test with HOP-62, 57 µM (inactive); in the test on NCI-H460 it was 52.8 µM (inactive); with EKVX, 30.8 µM (inactive); in the test on T47D, 41.6 µM (inactive). Also, the figures for the GI50 with SNB-75 and in the test with SR were 8.51 µM (inactive) and 24.4 µM (inactive), respectively.

As to `COc1nc(C#CC2CCCCC2)nc(OC)n1`, the GI50 was 5.24 µM (inactive) in the test with SF-295; 1.38 µM with HCT-15; 2.51 µM (inactive) in the test on OVCAR-5; 1.59 µM (inactive) with NCI-H522; 3.39 µM (inactive) in the test with CAKI-1; 3.92 µM (inactive) in the test with K562. The GI50 in the test with OVCAR-4 was 5.42 µM (inactive); in the test on 786-0, 1.69 µM (inactive); in the test on HT-29 it was 4.81 µM (inactive); with IGROV-1 it was 3.79 µM (inactive); in the test with CCRF-CEM it was 1.12 µM (inactive); with U-251, 3.39 µM (inactive). In addition, the GI50 in the test with HCT-116 was 0.401 µM (active); in the test on MDA-MB-435, 2.08 µM (inactive); in the test on HOP-62 it was 3.72 µM (inactive); in the test with NCI-H460, 5.6 µM (inactive); in the test on EKVX, 16 µM (inactive); in the test on T47D it was 31.7 µM (inactive). Moreover, the GI50 with SNB-75 is 9.71 µM (inactive); with SR, 2.3 µM (inactive).

Turning to `CCN(CC)CCCNc1c2cc(OC)ccc2nc2cccc([N+](=O)[O-])c12`, the GI50 is 0.147 µM (active) in the test with SF-295; 0.0676 µM in the test with HCT-15; 0.0832 µM (active) in the test on OVCAR-5; 0.00658 µM (active) in the test on NCI-H522; 0.21 µM (active) with CAKI-1; 0.00643 µM (active) in the test on K562. For the same molecule, the GI50 in the test on OVCAR-4 was 0.0261 µM (active); with 786-0 it was 0.071 µM (active); with HT-29 it was 0.0456 µM (active); in the test on IGROV-1, 0.102 µM (active); with CCRF-CEM, 0.128 µM (active); with U-251, 0.082 µM (active). Moreover, the GI50 was 0.0327 µM (active) with HCT-116; 0.0995 µM (active) in the test on MDA-MB-435; 0.156 µM (active) in the test on HOP-62; 0.0184 µM (active) in the test with NCI-H460; 0.163 µM (active) in the test with EKVX; 0.151 µM (active) in the test on T47D. Also, the GI50 in the test on SNB-75 was 0.151 µM (active); in the test on SR, 0.00612 µM (active).

For the molecule `Cc1nc2ccccc2n1CCc1nc2ccccc2s1`, the GI50 is 8.49 µM (inactive) in the test on SF-295; 87.7 µM with HCT-15; > 100 µM (inactive) in the test on OVCAR-5; 15.6 µM (inactive) in the test with NCI-H522; > 100 µM (inactive) in the test with CAKI-1; 11 µM (inactive) in the test on K562. Also, the GI50 was 42.3 µM (inactive) in the test on OVCAR-4; 42.7 µM (inactive) in the test on 786-0; 21.1 µM (inactive) in the test with HT-29; > 100 µM (inactive) with IGROV-1; 14 µM (inactive) in the test on CCRF-CEM; 75 µM (inactive) in the test with U-251. The GI50 in the test on HCT-116 was 25.9 µM (inactive); in the test with MDA-MB-435 it was 57.8 µM (inactive); in the test with HOP-62 it was > 100 µM (inactive); in the test on NCI-H460, 31.2 µM (inactive); in the test on EKVX, 7.23 µM (inactive); in the test on T47D, 7.21 µM (inactive). The GI50 is 78 µM (inactive) in the test on SNB-75 and 11.6 µM (inactive) in the test on SR.

`CC/C(Cl)=N\OC(=O)Nc1ccc(F)c(Cl)c1`: the GI50 was 18.2 µM (inactive) in the test with SF-295; 15.2 µM in the test with HCT-15; 16.5 µM (inactive) in the test with OVCAR-5; 1.87 µM (inactive) with NCI-H522; 5.21 µM (inactive) in the test on CAKI-1; 1.84 µM (inactive) in the test on K562. Also, the GI50 was 14.5 µM (inactive) in the test on OVCAR-4; 7.1 µM (inactive) in the test with 786-0; 24 µM (inactive) in the test on HT-29; 16.3 µM (inactive) with IGROV-1; 2.04 µM (inactive) in the test with CCRF-CEM; 17.2 µM (inactive) in the test with U-251. The GI50 in the test with HCT-116 is 14 µM (inactive); with MDA-MB-435 it was 21.2 µM (inactive); in the test with HOP-62 it was 19 µM (inactive); in the test on NCI-H460 it was 17.7 µM (inactive); in the test on EKVX it was 18.2 µM (inactive); in the test on T47D, 7.89 µM (inactive). The values for the GI50 with SNB-75 and in the test on SR were 12.2 µM (inactive) and 4.99 µM (inactive), respectively.

In the case of `CCOP(=O)(OCC)C(=C1C=C(C(C)(C)C)C(=O)C(C(C)(C)C)=C1)P(=O)(OCC)OCC`, the GI50 with SF-295 was > 10 µM (inactive); in the test on HCT-15 it was 3.1 µM; in the test with OVCAR-5, > 10 µM (inactive); in the test with NCI-H522 it was 2.27 µM (inactive); with CAKI-1, 3.33 µM (inactive); in the test on K562, > 4.8 µM (inactive). For the same molecule, the GI50 with OVCAR-4 was 1.87 µM (inactive); with 786-0, > 4.09 µM (inactive); in the test on HT-29 it was > 10 µM (inactive); in the test on IGROV-1, > 10 µM (inactive); with CCRF-CEM it was 1.14 µM (inactive); in the test on U-251 it was > 10 µM (inactive). Moreover, the GI50 was 2.54 µM (inactive) with HCT-116; > 5.24 µM (inactive) with MDA-MB-435; > 10 µM (inactive) in the test on HOP-62; > 10 µM (inactive) in the test with NCI-H460; > 7.76 µM (inactive) with EKVX; 2.13 µM (inactive) in the test with T47D. The GI50 in the test on SNB-75 is > 10 µM (inactive); in the test on SR it was 3.64 µM (inactive).

Consider `CC(C)=CCC[C@](C)(O[C@@H]1O[C@H](CO)[C@@H](O)[C@H](O)[C@H]1O)[C@H]1CC[C@]2(C)[C@@H]1[C@H](O)C[C@@H]1[C@@]3(C)CC[C@H](O)C(C)(C)[C@@H]3[C@@H](O[C@@H]3O[C@H](CO)[C@@H](O)[C@H](O)[C@H]3O[C@@H]3O[C@@H](C)[C@H](O)[C@@H](O)[C@H]3O)C[C@]12C.CC(C)=CCC[C@](C)(O[C@@H]1O[C@H](CO)[C@@H](O)[C@H](O)[C@H]1O)[C@H]1CC[C@]2(C)[C@@H]1[C@H](O)C[C@@H]1[C@@]3(C)CC[C@H](O)C(C)(C)[C@@H]3[C@@H](O[C@@H]3O[C@H](CO)[C@@H](O)[C@H](O)[C@H]3O[C@@H]3O[C@H](CO)[C@@H](O)[C@H](O)[C@H]3O)C[C@]12C`, for which the GI50 in the test on SF-295 is 60.3 µM (inactive); in the test with HCT-15 it was greater than 75 µM; in the test with OVCAR-5 it was > 75 µM (inactive); with NCI-H522, > 75 µM (inactive); with CAKI-1, > 75 µM (inactive); with K562, > 75 µM (inactive). The GI50 in the test with OVCAR-4, in the test with 786-0, with HT-29, in the test on IGROV-1, in the test with CCRF-CEM and with U-251 was > 75 µM (inactive) in each case. Besides, the GI50 in the test with HCT-116 is > 75 µM (inactive); with MDA-MB-435, > 75 µM (inactive); in the test with HOP-62, 22.9 µM (inactive); in the test with NCI-H460, 7.5 µM (inactive); in the test on EKVX, > 75 µM (inactive); in the test with T47D it was > 75 µM (inactive). For the same molecule, the GI50 in the test with SNB-75 is > 75 µM (inactive); in the test on SR it was 29.2 µM (inactive).
